Earlier results, collected in patent EP2934488B1, “A PHARMACEUTICAL COMPOSITION CONTAINING CANDESARTAN CILEXETIL AND AMLODIPINE” (Adamed Pharma S.A., priority 2012, dated 2014).

Key:
[1] = not given; remark: listed apart in the source

| Compound | absolute bioavailability (in vivo) | solubility in water [1] | candesartan physiologically available (candesartan included in commercial formulations, estimated) |
| --- | --- | --- | --- |
| CCOC(=O)C1=C(COCCN)NC(C)=C(C(=O)OC)C1c1ccccc1Cl (racemic) [Amlodipine benzenesulfonate, 3-ethyl 5-methyl (4RS)-2-[(2-amino-ethoxy)-methyl]-6-methyl-1,4-dihydropyridine-3,5-dicarboxylate] | 64-90% | slightly soluble in water | – |
| CCOc1nc2cccc(C(=O)O)c2n1Cc1ccc(-c2ccccc2-c2nnn[nH]2)cc1 [candesartan] | – | – | 15-40% |
